From patent publication EP4458352A1, “EICOSAPENTAENOIC ACID ESTER DERIVATIVES FOR THE TREATMENT OF OBESITY” (Technische Universität Dresden, priority 2023, dated 2024) come the findings set out here.

Structures are written as SMILES.

Data set [1] has as its system primary adrenal cell cultures. The data set is described as follows: Steroid hormone production (LC-MS/MS) in primary adrenal cell cultures treated with SC-26196, with or without ACTH or ARA. The format is cell-based, WT C57BL/6J mice. The method, then:
Adrenal glands or adrenal corteces were isolated from WT C57BL/6J mice, cleaned from the surrounding fat tissue and incubated in collagenase buffer (1.6 mg/ml collagenase type I, 1.6 mg/ml BSA) for 45 min at 37 °C, while shaking at 900 rpm. Dissociated cells were passed through 22 G needle and a 100 µm cell strainer and centrifuged at 300 × g for 5 min at 4 °C. Cells of a pool from two adrenals of each mouse were distributed in four 0.2 % gelatin-precoated wells of a 96-well plate in DMEM/F12 supplemented with 1 % FBS, 50 U/mL penicillin and 50 µg/mL streptomycin. Two hours after seeding 10 µM SC-26196 (Tocris, Wiesbaden-Nordenstadt, Germany) or same amount of carrier (DMSO) were added without changing the medium. In some experiments medium was additionally supplemented with 150 µM ARA (Sigma Aldrich, Germany) or same amount of solvent (endotoxin-free water). When induction of steroidogenesis was required, the medium was changed 18 h after treatment and the cells were incubated with or without 10 ng/mL ACTH for 60 min in the presence of either 10 µM SC-26196 or DMSO. Supernatants were kept for steroid hormone measurement and cell lysates were collected for transcriptional analysis. In some experiments, primary CD31-CD45- adrenocortical cells were treated or not for 18 h with 66 µM EPA (Sigma-Aldrich). Steroid hormones in plasma and cell culture supernatants were analyzed by LC-MS/MS as previously described (71). Fifty to hundred µL plasma or cell culture supernatants were extracted by solid phase extraction using positive pressure, followed by a dry-down under gentle stream of nitrogen. Residues were reconstituted in 100 µL of the initial LC mobile phase and 10 µL were injected for detection by the triple quadrupole mass spectrometer in multiple reaction-monitoring scan mode using positive electrospray ionization. Quantification of steroid concentrations was done by comparisons of ratios of analyte peak areas to respective peak areas of stable isotope labeled internal standards obtained in samples to those of calibrators.

In data set [2] the test system is primary adrenocortical cells. Kind of data set: Seahorse OCR measurement in primary adrenocortical cells treated with SC-26196. The format is cell-based, WT C57BL/6J mice. Conditions: SC-26196 10 µM, 18 h vs DMSO; n=4. The method, then: Primary adrenocortical cells were plated in 0.2 % gelatin-precoated XF96 cell culture microplate (Agilent) (8*10^4 cells/well) and treated for 18 h with DMSO or SC-26196 (10 µM). OCR was measured with a Seahorse XF96 Analyzer (Agilent Technologies). The experimental medium used was XF Base Medium supplemented with glucose (10 mM), pyruvate (1 mM) and glutamine (2 mM).

Data set [3] has as its system StAR, Cyp11a1, 3β-Hsd2, Cyp11b1, Cyp11b2. Kind of data set: mRNA expression of StAR and steroidogenic enzymes upon FADS2 inhibition (qPCR). The format is cell-based. To be noted: upon FADS2 inhibition (SC-26196). As to the method:
Adrenal glands or adrenal corteces were isolated from WT C57BL/6J mice, cleaned from the surrounding fat tissue and incubated in collagenase buffer (1.6 mg/ml collagenase type I, 1.6 mg/ml BSA) for 45 min at 37 °C, while shaking at 900 rpm. Dissociated cells were passed through 22 G needle and a 100 µm cell strainer and centrifuged at 300 × g for 5 min at 4 °C. Cells of a pool from two adrenals of each mouse were distributed in four 0.2 % gelatin-precoated wells of a 96-well plate in DMEM/F12 supplemented with 1 % FBS, 50 U/mL penicillin and 50 µg/mL streptomycin. Two hours after seeding 10 µM SC-26196 (Tocris, Wiesbaden-Nordenstadt, Germany) or same amount of carrier (DMSO) were added without changing the medium. In some experiments medium was additionally supplemented with 150 µM ARA (Sigma Aldrich, Germany) or same amount of solvent (endotoxin-free water). […]
RNA was isolated from frozen tissues with the TRI Reagent (MRC, Cincinnati, USA) after mechanical tissue disruption or from cells with the RNeasy Mini Kit (Qiagen, Düsseldorf, Germany) according to manufacturer's instructions. […] Reverse transcription was performed with the iScript cDNA Synthesis kit (Biorad, Munich, Germany) and cDNA was analyzed by qPCR using the SsoFast Eva Green Supermix (Bio-Rad, Munich, Germany), a CFX384 real-time System C1000 Thermal Cycler (Bio-Rad) and the Bio-Rad CFX Manager 3.1 software.
Background: Quantitative PCR measures a nucleic acid by following its amplification.

The mark [4] stands for this setting: SC-26196 10 µM 18 h, then ACTH 10 ng/mL for 1 h, n=12.

For the compound `N#CC(CCCN1CCN(/N=C/c2cccnc2)CC1)(c1ccccc1)c1ccccc1` [SC-26196], in data set [1] (setting [4]), the 11-deoxycorticosterone production entry is listed as “abolished”, the aldosterone production entry is listed as “abolished”, the corticosterone production result is listed as “abolished” and the progesterone production result is “abolished”. In data set [1] (SC-26196-treated primary adrenal cell cultures, data not shown), the cell viability entry is recorded as “without affecting cell viability”. Further, the “oxygen consumption rate (OCR)” value in data set [2] is “decreased”. The “mRNA expression of StAR or steroidogenic enzymes (Cyp11a1, 3β-Hsd2, Cyp11b1, Cyp11b2)” value in data set [3] was “increased”.
